{"source": "patent US12594256B2", "about": "“A19-144, A2-73 and certain anticholinesterase inhibitor compositions and method for anti-seizure therapy” (priority 2014, dated 2026)", "key": {"[1]": {"experiment": "Pharmacokinetics of metabolite AV19-144 in plasma after oral AV2-73 (LC-MS/MS)", "assay_type": "in vivo", "conditions": "for MRT: read-out: mean residence time of AV19-144", "description": "After separation from human plasma analytes were injected into a LC-MS/MS. […] A weighted (1/x) regression 2nd order was performed to determine the concentration of the analytes. The study was conducted in accordance with the Principles of Good Laboratory Practice (GLP) as described under § 19, German Chemical Law. The validation based on the EG-Dok."}, "Aβ25-35-induced toxicity [2]": {"test_system": "Aβ25-35-induced toxicity", "experiment": "Aβ25-35 model, pre- and post-peptide administration schedules (Y maze, passive avoidance, hippocampal lipid peroxidation)", "assay_type": "in vivo, mice", "conditions": "for anti-amnesic and neuroprotective effect against amyloid toxicity: drug administered before or after the amyloid peptide challenge"}, "sigma-1 receptors": {"molecular_target": "sigma-1 receptors (Homo sapiens, UniProt Q99720)", "sequence (Q99720 whole entry)": "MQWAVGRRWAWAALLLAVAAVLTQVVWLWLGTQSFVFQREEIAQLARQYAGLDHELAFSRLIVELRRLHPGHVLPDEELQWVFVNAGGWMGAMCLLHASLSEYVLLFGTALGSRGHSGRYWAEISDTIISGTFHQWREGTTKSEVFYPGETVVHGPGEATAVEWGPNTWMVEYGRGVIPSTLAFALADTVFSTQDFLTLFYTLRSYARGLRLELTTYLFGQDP", "conditions": "believed to bind; cited from earlier work"}, "[3]": {"test_system": "muscarinic acetylcholine receptors", "conditions": "believed to bind; cited from earlier work"}, "Aβ25-35-induced toxicity [4]": {"test_system": "Aβ25-35-induced toxicity", "conditions": "cited from earlier work"}, "seizures": {"test_system": "seizures", "experiment": "Seizure prophylaxis in single subjects (Examples 1-6)", "assay_type": "in vivo, human", "description": "A person is experiencing 4 to 7 seizures per day with a baseline of 6.6 seizures per day. A19-144 is administered daily at 2.0 mg for 5 days.\nThe subject is administered low dose donepezil (4 mg daily) for 5 days cotimely with continued A19-144 administration daily at 2.0 mg for 5 days.\nA person is experiencing 6 to 8 seizures per day with a baseline of 6.6 seizures per day. A19-144 is administered daily at 2.0 mg for 5 days.\nThe subject is administered low dose Eslicarbazepine acetate at 600 mg/day; for 5 days cotimely with continued A19-144 administration daily at 2.0 mg for 5 days.\nA person is experiencing seizures 3.2 per day. The subject is administered lacosamide at 60 mg two times per day for 5 days and cotimely administration of A19-144 daily at 2.0 mg for 5 days.\nThe person is experiencing an average of 3.3 seizures per day. The subject is administered Levetiracetam at 400 mg two times per day for 5 days and cotimely administration of 3.0 mg of A19-144 daily for 5 days."}, "[5]": {"molecular_target": "muscarinic M1-M4 receptors", "conditions": "screening profile; cited from earlier work"}, "σ1": {"molecular_target": "σ1 (Homo sapiens, UniProt Q99720)", "sequence (Q99720 whole entry)": "as above", "conditions": "as compared with σ1 sites (so in the source); cited from earlier work"}, "sodium channel site 2": {"test_system": "sodium channel site 2", "conditions": "screening profile; cited from earlier work"}, "σ2 sites": {"molecular_target": "σ2 sites (Homo sapiens, UniProt Q5BJF2)", "sequence (Q5BJF2 whole entry)": "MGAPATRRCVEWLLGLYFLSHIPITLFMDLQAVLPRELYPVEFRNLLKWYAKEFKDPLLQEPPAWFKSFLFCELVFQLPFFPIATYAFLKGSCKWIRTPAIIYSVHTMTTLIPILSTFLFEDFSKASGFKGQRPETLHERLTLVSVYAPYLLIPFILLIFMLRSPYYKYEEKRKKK", "conditions": "reported binding analyses; cited from earlier work"}, "NMDA receptors": {"molecular_target": "NMDA receptors", "conditions": "screening profile; cited from earlier work"}, "[6]": {"conditions": "0.3 mg/kg ip once a day, day 7 to day 13 after Aβ25-35, measured 14 days after Aβ25-35"}, "[7]": {"conditions": "0.1 or 0.3 mg/kg ip once a day, day -7 to day -1 before Aβ25-35, 7 days after Aβ25-35"}}, "note": "Where two headings read alike, the source gives them in different places."}
{"smiles": "CNCC1CCOC1(c1ccccc1)c1ccccc1.Cl", "note": "(centres unmarked) [A19-144, 1-(2,2-diphenyltetrahydrofuran-3-yl)-N-methylmethanamine hydrochloride]", "values": [{"measurement": "Cmax", "setting": "[1]; human, oral, across the 10 to 60 mg AV2-73 dose steps, plasma, FIG. 1", "result": "1.31 to 22.3", "unit": "ng/mL"}, {"measurement": "half-life", "setting": "[1]; human, oral, across the 10 to 60 mg AV2-73 dose steps, plasma, FIG. 1, read-out: mean terminal elimination half-life t1/2 of AV19-144", "result": "8.56 to 28.7", "unit": "h"}, {"measurement": "MRT", "setting": "[1]; human, plasma, oral, after 10 mg AV2-73, FIG. 2", "result": 14.3, "unit": "h"}, {"measurement": "MRT", "setting": "[1]; human, plasma, oral, after 60 mg AV2-73, FIG. 2", "result": 42.7, "unit": "h"}, {"measurement": "lipid peroxidation increase", "setting": "Aβ25-35-induced toxicity [2]; [6]", "result": "effective"}, {"measurement": "memory deficits", "setting": "Aβ25-35-induced toxicity [2]; [6]", "result": "effective"}, {"measurement": "Aβ25-35-induced lipid peroxidation in the hippocampus", "setting": "Aβ25-35-induced toxicity [2]; [7]", "result": "blocks"}, {"measurement": "Aβ25-35-induced memory deficits (spontaneous alternation in the Y maze and passive avoidance response)", "setting": "Aβ25-35-induced toxicity [2]; [7]", "result": "blocks"}, {"measurement": "anti-amnesic and neuroprotective effect against amyloid toxicity", "setting": "Aβ25-35-induced toxicity [2]", "result": "effective in pre- and post-protection"}, {"measurement": "Aβ25-35-induced toxicity and learning impairments", "setting": "Aβ25-35-induced toxicity [2]; injected repeatedly one week after the peptide", "result": "able to reverse"}, {"measurement": "affinity for sigma-1 receptors", "setting": "sigma-1 receptors", "result": "low micromolar range"}, {"measurement": "affinity for muscarinic acetylcholine receptors", "setting": "[3]", "result": "low micromolar range"}, {"measurement": "Aβ25-35-induced P-Akt decrease and P-GSK-3β increase", "setting": "Aβ25-35-induced toxicity [4]; Lahmy et al. 2013", "result": "blocked"}, {"measurement": "hyperphosphorylation of Tau on physiological (AT-8) and pathological (AT-100) epitopes", "setting": "Aβ25-35-induced toxicity [4]; in the dose-range tested", "result": "attenuated"}, {"measurement": "oxidative stress, caspases induction, cellular loss and learning and memory deficits", "setting": "Aβ25-35-induced toxicity [4]; mice one week after injection of oligomeric Aβ25-35 (Villard et al. 2011)", "result": "attenuating"}, {"measurement": "neuroprotection against amyloid toxicity", "setting": "Aβ25-35-induced toxicity [4]; mice, reported", "result": "neuroprotective potential"}, {"measurement": "seizures per day", "setting": "seizures; Example 1: person, baseline 6.6 per day, 2.0 mg daily for 5 days, for 8 weeks post dosing", "result": 2.2, "unit": "per day"}, {"measurement": "seizures per day", "setting": "seizures; Example 3: person, baseline 6.6 per day, 2.0 mg daily for 5 days, for 8 weeks post dosing", "result": 1.2, "unit": "per day"}, {"measurement": "seizures per day", "setting": "seizures; person of Example 1, at 6 months post dosing", "result": 2.2, "unit": "per day"}, {"measurement": "seizures per day (average)", "setting": "seizures; person of Example 3, at 6 months post dosing", "result": 1.2, "unit": "per day"}]}
{"smiles": "CN(C)CC1CCOC1(c1ccccc1)c1ccccc1.Cl", "note": "(centres unmarked) [A2-73, 1-(2,2-diphenyltetrahydrofuran-3-yl)-N,N-dimethylmethanamine hydrochloride]", "values": [{"measurement": "biotransformation of AV2-73 to main metabolite AV19-144", "setting": "[1]; after oral administration", "result": "rapid and extensive biotransformation"}, {"measurement": "IC50", "setting": "[5]", "result": "3.3 to 5.2", "unit": "µM"}, {"measurement": "anti-amnesic and neuroprotective effect against amyloid toxicity", "setting": "Aβ25-35-induced toxicity [2]", "result": "effective in pre- and post-protection"}, {"measurement": "selectivity for the σ1 subtype", "setting": "σ1", "result": "better selectivity for the σ1 subtype"}, {"measurement": "IC50", "setting": "sodium channel site 2", "result": 5.1, "unit": "µM"}, {"measurement": "affinity for σ2 sites", "setting": "σ2 sites", "result": "no affinity"}, {"measurement": "Aβ25-35-induced endogenous Aβ1-42 seeding", "setting": "Aβ25-35-induced toxicity [4]; reported", "result": "decreasing"}, {"measurement": "results of Examples 1 through 6 (seizure prophylaxis)", "setting": "seizures; A2-73 substituted for A19-144", "result": "similarly effective"}, {"measurement": "IC50", "setting": "NMDA receptors", "result": 8, "unit": "µM"}]}
